Experiment in all cases: relative viability (nuclei count vs DMSO), 5 days (fraction); higher = more cells survive
Compound in the assay “IU1-47 + Lapatinib”: CC1=CC(=C(N1C2=CC=C(C=C2)Cl)C)C(=O)CN3CCCCC3 [IU1-47] + CS(=O)(=O)CCNCc1ccc(-c2ccc3ncnc(Nc4ccc(OCc5cccc(F)c5)c(Cl)c4)c3c2)o1 [Lapatinib] (partner 2 µM)
The method in brief: (§1)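 Lung cancer cell lines, seeded in 1536-well plates, were treated the following day by pin tool with a single drug or with five library-drug doses (not always all listed) in √10 steps on top of a fixed anchor-drug dose. Cells were fixed and nuclei stained in one step after 5 days, and nuclei were counted. Relative viability is the nuclei count for treated wells divided by that for vehicle wells, reported as medians of duplicate plates.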

Compound in the assay “FG-4592 + Palbociclib”: Cc1nc(C(=O)NCC(=O)O)c(O)c2ccc(Oc3ccccc3)cc12 [FG-4592] + CC(=O)c1c(C)c2cnc(Nc3ccc(N4CCNCC4)cn3)nc2n(C2CCCC2)c1=O [Palbociclib] (partner 0.5 µM)
The method in brief: as §1

Compound in the assay “FG-4592 + Luminespib”: Cc1nc(C(=O)NCC(=O)O)c(O)c2ccc(Oc3ccccc3)cc12 [FG-4592] + CCNC(=O)c1noc(-c2cc(C(C)C)c(O)cc2O)c1-c1ccc(CN2CCOCC2)cc1 [Luminespib] (partner 0.01 µM)
The method in brief:
as §1

Compound in the assay “FG-4592 + Phenformin”: Cc1nc(C(=O)NCC(=O)O)c(O)c2ccc(Oc3ccccc3)cc12 [FG-4592] + N=C(N)NC(=N)NCCc1ccccc1 [Phenformin] (partner 250 µM)
The method in brief: as §1

Take NCI-H322M: the relative viability in the assay with IU1-47 + Lapatinib (first compound 0.08 µM) stood at 0.574; in the assay with IU1-47 + Lapatinib (first compound 0.253 µM) it was 0.622; with IU1-47 + Lapatinib (first compound 0.8 µM) it was 0.507; with IU1-47 + Lapatinib (first compound 2.53 µM), 0.633; with IU1-47 + Lapatinib (first compound 8 µM) it was 0.561; with FG-4592 + Palbociclib (first compound 0.253 µM), 0.455. The relative viability with FG-4592 + Palbociclib (first compound 0.8 µM) is 0.444; with FG-4592 + Palbociclib (first compound 2.53 µM), 0.465; with FG-4592 + Palbociclib (first compound 8 µM), 0.483; in the assay with FG-4592 + Luminespib (first compound 0.08 µM) it was 0.82; in the assay with FG-4592 + Luminespib (first compound 0.253 µM) it was 0.841; in the assay with FG-4592 + Luminespib (first compound 0.8 µM), 0.666. Moreover, the relative viability with FG-4592 + Luminespib (first compound 2.53 µM) is 0.818; with FG-4592 + Luminespib (first compound 8 µM) it was 0.623; with FG-4592 + Phenformin (first compound 0.08 µM) it was 0.597; in the assay with FG-4592 + Phenformin (first compound 0.253 µM), 0.716; with FG-4592 + Phenformin (first compound 0.8 µM), 0.728; with FG-4592 + Phenformin (first compound 2.53 µM) it was 0.715. Besides, the relative viability in the assay with FG-4592 + Phenformin (first compound 8 µM) is 0.708.

Take NCI-H2170: the relative viability came to 0.286 in the assay with IU1-47 + Lapatinib (first compound 0.08 µM); 0.297 with IU1-47 + Lapatinib (first compound 0.253 µM); 0.289 with IU1-47 + Lapatinib (first compound 0.8 µM); 0.301 with IU1-47 + Lapatinib (first compound 2.53 µM); 0.263 in the assay with IU1-47 + Lapatinib (first compound 8 µM); 0.423 with FG-4592 + Palbociclib (first compound 0.08 µM). Besides, the relative viability with FG-4592 + Palbociclib (first compound 0.253 µM) amounted to 0.351; with FG-4592 + Palbociclib (first compound 0.8 µM) it was 0.345; with FG-4592 + Palbociclib (first compound 2.53 µM), 0.381; in the assay with FG-4592 + Palbociclib (first compound 8 µM) it was 0.282; with FG-4592 + Luminespib (first compound 0.08 µM) it was 0.653; with FG-4592 + Luminespib (first compound 0.253 µM), 0.62. For the same cell line, the relative viability in the assay with FG-4592 + Luminespib (first compound 0.8 µM) came out at 0.538; with FG-4592 + Luminespib (first compound 2.53 µM), 0.606; with FG-4592 + Luminespib (first compound 8 µM), 0.501; with FG-4592 + Phenformin (first compound 0.08 µM), 0.381; with FG-4592 + Phenformin (first compound 0.253 µM) it was 0.359; with FG-4592 + Phenformin (first compound 0.8 µM) it was 0.494. In addition, the relative viability with FG-4592 + Phenformin (first compound 2.53 µM) worked out at 0.43; in the assay with FG-4592 + Phenformin (first compound 8 µM), 0.503.

For NCI-H1395, the relative viability in the assay with IU1-47 + Lapatinib (first compound 0.08 µM) was 0.968; in the assay with IU1-47 + Lapatinib (first compound 0.253 µM), 0.96; with IU1-47 + Lapatinib (first compound 0.8 µM), 1.08; with IU1-47 + Lapatinib (first compound 8 µM) it was 0.892; in the assay with FG-4592 + Palbociclib (first compound 0.08 µM) it was 0.585; with FG-4592 + Palbociclib (first compound 0.253 µM), 0.615. The relative viability in the assay with FG-4592 + Palbociclib (first compound 0.8 µM) was 0.597; with FG-4592 + Palbociclib (first compound 2.53 µM), 0.688; in the assay with FG-4592 + Palbociclib (first compound 8 µM), 0.485; with FG-4592 + Luminespib (first compound 0.08 µM), 0.34; in the assay with FG-4592 + Luminespib (first compound 0.253 µM), 0.685; with FG-4592 + Luminespib (first compound 0.8 µM), 0.583. In addition, the relative viability was 0.61 with FG-4592 + Luminespib (first compound 2.53 µM); 0.753 with FG-4592 + Luminespib (first compound 8 µM); 0.408 with FG-4592 + Phenformin (first compound 0.08 µM); 0.46 in the assay with FG-4592 + Phenformin (first compound 0.253 µM); 0.397 with FG-4592 + Phenformin (first compound 0.8 µM); 0.408 with FG-4592 + Phenformin (first compound 2.53 µM). In addition, the relative viability with FG-4592 + Phenformin (first compound 8 µM) was 0.415.

As for NCI-H358, the relative viability with IU1-47 + Lapatinib (first compound 0.08 µM) worked out at 0.445; with IU1-47 + Lapatinib (first compound 0.253 µM), 0.381; in the assay with IU1-47 + Lapatinib (first compound 0.8 µM), 0.481; with IU1-47 + Lapatinib (first compound 8 µM) it was 0.456; with FG-4592 + Palbociclib (first compound 0.08 µM) it was 0.114; with FG-4592 + Palbociclib (first compound 0.253 µM), 0.141. The relative viability in the assay with FG-4592 + Palbociclib (first compound 0.8 µM) was 0.128; with FG-4592 + Palbociclib (first compound 2.53 µM), 0.128; with FG-4592 + Palbociclib (first compound 8 µM), 0.136; in the assay with FG-4592 + Luminespib (first compound 0.08 µM) it was 0.311; in the assay with FG-4592 + Luminespib (first compound 0.253 µM) it was 0.36; in the assay with FG-4592 + Luminespib (first compound 0.8 µM), 0.426. Besides, the relative viability in the assay with FG-4592 + Luminespib (first compound 2.53 µM) is 0.395; with FG-4592 + Luminespib (first compound 8 µM), 0.238; with FG-4592 + Phenformin (first compound 0.08 µM) it was 0.361; with FG-4592 + Phenformin (first compound 0.253 µM), 0.293; with FG-4592 + Phenformin (first compound 0.8 µM), 0.372; with FG-4592 + Phenformin (first compound 2.53 µM) it was 0.324. For the same cell line, the relative viability with FG-4592 + Phenformin (first compound 8 µM) worked out at 0.5.

With NCI-H838, the relative viability in the assay with IU1-47 + Lapatinib (first compound 0.08 µM) was 0.922; with IU1-47 + Lapatinib (first compound 0.253 µM), 0.889; in the assay with IU1-47 + Lapatinib (first compound 0.8 µM), 1.23; in the assay with IU1-47 + Lapatinib (first compound 2.53 µM), 1.01; with IU1-47 + Lapatinib (first compound 8 µM), 0.888; in the assay with FG-4592 + Palbociclib (first compound 0.08 µM) it was 0.192. For the same cell line, the relative viability with FG-4592 + Palbociclib (first compound 0.253 µM) came to 0.218; with FG-4592 + Palbociclib (first compound 0.8 µM), 0.198; with FG-4592 + Palbociclib (first compound 2.53 µM), 0.218; in the assay with FG-4592 + Palbociclib (first compound 8 µM) it was 0.174; in the assay with FG-4592 + Luminespib (first compound 0.08 µM), 0.324; with FG-4592 + Luminespib (first compound 0.253 µM), 0.179. The relative viability with FG-4592 + Luminespib (first compound 0.8 µM) came to 0.263; with FG-4592 + Luminespib (first compound 2.53 µM), 0.386; in the assay with FG-4592 + Luminespib (first compound 8 µM) it was 0.272; with FG-4592 + Phenformin (first compound 0.08 µM), 0.545; with FG-4592 + Phenformin (first compound 0.253 µM) it was 0.581; with FG-4592 + Phenformin (first compound 0.8 µM), 0.5. The relative viability with FG-4592 + Phenformin (first compound 2.53 µM) stood at 0.505; in the assay with FG-4592 + Phenformin (first compound 8 µM) it was 0.583.

Turning to CAL-12T, the relative viability came out at 0.683 in the assay with IU1-47 + Lapatinib (first compound 0.08 µM); 0.765 with IU1-47 + Lapatinib (first compound 0.253 µM); 0.744 with IU1-47 + Lapatinib (first compound 0.8 µM); 0.591 in the assay with IU1-47 + Lapatinib (first compound 2.53 µM); 0.763 with IU1-47 + Lapatinib (first compound 8 µM); 0.554 in the assay with FG-4592 + Palbociclib (first compound 0.08 µM). For the same cell line, the relative viability with FG-4592 + Palbociclib (first compound 0.253 µM) was found to be 0.339; with FG-4592 + Palbociclib (first compound 0.8 µM), 0.386; with FG-4592 + Palbociclib (first compound 2.53 µM), 0.336; in the assay with FG-4592 + Palbociclib (first compound 8 µM), 0.442; with FG-4592 + Luminespib (first compound 0.08 µM), 0.212; with FG-4592 + Luminespib (first compound 0.253 µM), 0.458. Also, the relative viability in the assay with FG-4592 + Luminespib (first compound 0.8 µM) was 0.129; with FG-4592 + Luminespib (first compound 2.53 µM), 0.375; with FG-4592 + Luminespib (first compound 8 µM), 0.689; in the assay with FG-4592 + Phenformin (first compound 0.08 µM) it was 0.593; in the assay with FG-4592 + Phenformin (first compound 0.253 µM), 0.51; in the assay with FG-4592 + Phenformin (first compound 0.8 µM), 0.56. Besides, the results for the relative viability in the assay with FG-4592 + Phenformin (first compound 2.53 µM) and with FG-4592 + Phenformin (first compound 8 µM) were 0.546 and 0.542, respectively.

The values above are taken from the supplement of paper PMC10307832.
